Drawing on ChEMBL document CHEMBL1145702, “(+)-Angchibangkine, a new type of bisbenzylisoquinoline alkaloid, and other dimers from Pachygone dasycarpa” (J Nat Prod, 1997), this text covers IC50 for three molecules.

In brackets after ≈: the same amount, converted by molar mass.

The subject of assay [1] is Plasmodium falciparum. The assay can be described thus: Antiplasmodial activity against chloroquine-resistant Plasmodium falciparum W2 as [3H]hypoxanthine uptake. In kind it is functional, organism-based.
The subject of assay [2] is Plasmodium falciparum. The assay is described as follows: Antiplasmodial activity against chloroquine-sensitive Plasmodium falciparum D6 as [3H]hypoxanthine uptake. The format is functional, organism-based.
In the next assay the test system is KB. The assay can be described thus: Cytotoxicity against human KB cells. The format is functional, cell-based.

As usually defined, the IC50 is the midpoint of a concentration-inhibition curve. Read a low IC50 as inhibition by little substance. Turning to `COc1cc2c3c4c1Oc1cc5c(cc1O4)[C@H](Cc1ccc(cc1)Oc1cc(ccc1O)C[C@@H]3N(C)CC2)N(C)CC5`, the figures for the IC50 in the assay with Plasmodium falciparum [1], with Plasmodium falciparum [2] and in the assay on KB were 0.265 µg/mL (≈ 0.471 µM), 0.306 µg/mL (≈ 0.544 µM) and 12 µg/mL (≈ 21.3 µM), respectively.

`COc1ccc2cc1Oc1ccc(cc1)C[C@H]1c3cc4c(cc3CCN1C)Oc1c(OC)cc3c(c1O4)[C@H](C2)N(C)CC3`: the IC50 with Plasmodium falciparum [1] is 0.204 µg/mL (≈ 0.354 µM); in the assay on Plasmodium falciparum [2] it was 0.326 µg/mL (≈ 0.565 µM); with KB it was 5.9 µg/mL (≈ 10.2 µM).

`COc1ccc2cc1Oc1ccc(cc1)C[C@H]1c3c(cc(O)c4c3Oc3cc5c(cc3O4)CCN(C)[C@H]5C2)CCN1C`: the half-inhibitory concentration (IC50) in the assay with Plasmodium falciparum [1] turned out to be 0.063 µg/mL (≈ 0.112 µM); with Plasmodium falciparum [2] it was 0.0171 µg/mL (≈ 0.0304 µM); with KB, 3.4 µg/mL (≈ 6.04 µM).
